Common to all, as to assay: Bliss excess, mean over the matrix (fraction); higher = more synergy
Test [1] concerns CHSA8926 (Chondrosarcoma). A digest of the protocol: (§1)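 After 24 hours at 37°C and 5% CO2 in 1536-well plates, cells in DMEM/F12 or RPMI plus 10% FBS received two-drug dose matrices for 72 hours. Viability came from CellTiter-Glo 2.0 luminescence and was scaled as inhibition, anchored at 0 by vehicle wells and at 1 by blank wells. Combination Emax is taken as the second-highest inhibition in the matrix, and Bliss excess as the observed combination effect less EA + EB − EA·EB, with EA and EB the single-agent effects.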

Test [2] has as its system PC-3 (Prostate Carcinoma). The gist of the method: as §1
Test [3] deals with VMRC-RCZ (Kidney Carcinoma). A digest of the protocol: as §1
Test [4] concerns ST486 (Burkitt's Lymphoma). The gist of the method:
as §1

Test [5] deals with CW-2 (Colorectal Carcinoma). A digest of the protocol: as §1
Test [6] has as its system MN-60 (B-Lymphoblastic Leukemia). A digest of the protocol:
as §1

Test [7] concerns SUP-B15 (B-Lymphoblastic Leukemia). The gist of the method: as §1
In test [8] the test system is HCC1187 (Breast Carcinoma). A digest of the protocol:
as §1

Test [9] deals with HCC1419 (Breast Carcinoma). The gist of the method: as §1
For test [10], the system named is KU812 (Chronic Myelogenous Leukemia). The gist of the method: as §1
Test [11] deals with DAN-G (Pancreatic Carcinoma). A digest of the protocol:
as §1

For test [12], the system named is MOG-G-CCM (Low Grade Glioma). The gist of the method:
as §1

Test [13] has as its system NCI-H526 (Small Cell Lung Carcinoma). The gist of the method:
as §1

The subject of test [14] is NCI-H3122 (Lung Adenocarcinoma). The gist of the method: as §1
Test [15] has as its system DMS-114 (Small Cell Lung Carcinoma). A digest of the protocol:
as §1

Test [16] concerns SK-GT-4 (Esophageal Adenocarcinoma). A digest of the protocol:
as §1

Test [17] deals with NCCIT (Other Solid Carcinomas). A digest of the protocol: as §1
Test [18] concerns H9 (T-Cell Non-Hodgkin's Lymphoma). A digest of the protocol: as §1
In the next test the test system is RD (Rhabdomyosarcoma). A digest of the protocol: as §1
For test [19], the system named is KYSE-270 (Esophageal Squamous Cell Carcinoma). A digest of the protocol:
as §1

As to `COc1nnc2ccc(N3CCC(c4ccc(OCCN5CCN(C)C(=O)[C@H]5C)cc4)CC3)nn12` [AZD5153] + C[C@@H]1COCCN1C2=NC(=NC(=C2)C3(CC3)[S@](=N)(=O)C)C4=C5C=CNC5=NC=C4 [AZD6738] (first compound max 1 µM, 7x7, partner max 10 µM), the Bliss excess in [1] is 0.0437; in [2] it was 0.0034; in [3] it was 0.0926; in test [4], -0.0692; in [5], 0.0277; in test [6], -0.0638. The Bliss excess is -0.012 in test [7]; 0.0265 in [8]; -0.0517 in [9]; -0.065 in test [10]; 0.0374 in test [11]; -0.0378 in test [12]. Also, the Bliss excess in test [13] was -0.044; in test [14] it was -0.0382; in test [15], 0.0184; in test [16] it was -0.0252; in test [17], -0.0702; in test [18] it was -0.0108. Also, the Bliss excess was 0 with RD (Rhabdomyosarcoma) and -0.0544 in [19].
`COc1nnc2ccc(N3CCC(c4ccc(OCCN5CCN(C)C(=O)[C@H]5C)cc4)CC3)nn12` [AZD5153] + Cc1c2c(nn1C)CSCc1cc(n(C)n1)CSc1cc(c3ccccc3c1)OCCCc1c(C(=O)O)n(C)c3c-2c(Cl)ccc13 [AZD5991] (first compound max 1 µM, 7x7, partner max 1 µM): the Bliss excess in [1] was -0.0166; in test [2] it was -0.054; in test [3] it was -0.022; in test [4], -0.0275; in test [5], -0.0629; in [6], -0.0765. Also, the Bliss excess in test [7] is 0.0356; in test [8], 0.0079; in test [9] it was -0.0411; in test [10], -0.0007; in test [11] it was -0.0163; in test [12] it was 0.0248. Further, the Bliss excess in test [13] was 0.03; in test [14], -0.0279; in [15], 0.029; in test [16] it was -0.0304; in [17] it was -0.0196; in test [18], -0.0056. Further, the figures for the Bliss excess (in the test with RD (Rhabdomyosarcoma); in test [19]) were 0.0267 and 0.0085, respectively.
Turning to `COc1nnc2ccc(N3CCC(c4ccc(OCCN5CCN(C)C(=O)[C@H]5C)cc4)CC3)nn12` [AZD5153] + Cn1cnc2c(F)c(Nc3ccc(Br)cc3Cl)c(C(=O)NOCCO)cc21 [Selumetinib] (first compound max 1 µM, 7x7, partner max 10 µM), the Bliss excess in [1] was -0.0599; in [2], -0.0598; in [3], -0.0486; in test [4], 0.031; in [5], 0.0215; in [6], -0.0593. In addition, the Bliss excess in test [7] is 0.101; in test [8], -0.0067; in test [9], 0.0238; in [10] it was 0.0272; in test [11], -0.0368; in [12], -0.0198. Also, the Bliss excess in test [13] was -0.0183; in test [14] it was -0.0818; in test [15], 0.0443; in test [16], -0.0158; in test [17], -0.0845; in [18], 0.0074. Besides, the figures for the Bliss excess (in the test on RD (Rhabdomyosarcoma); in [19]) were 0.0333 and 0.0576, respectively.
In the case of `Cc1c2c(nn1C)CSCc1cc(n(C)n1)CSc1cc(c3ccccc3c1)OCCCc1c(C(=O)O)n(C)c3c-2c(Cl)ccc13` [AZD5991] + C=CCn1c(=O)c2cnc(Nc3ccc(N4CCN(C)CC4)cc3)nc2n1-c1cccc(C(C)(C)O)n1 [AZD1775] (first compound max 1 µM, partner max 1 µM), the Bliss excess in test [1] was -0.0155; in test [2] it was 0.0111; in test [3] it was 0.0212; in [4], -0.0067; in [5], 0.04; in test [6], -0.0077. For the same compound, the Bliss excess is 0.0171 in test [7]; -0.0342 in test [8]; -0.106 in [9]; -0.0284 in [10]; 0.0424 in [11]; -0.0287 in [12]. In addition, the Bliss excess was -0.0063 in test [13]; -0.058 in test [14]; -0.0295 in [15]; -0.0617 in [16]; -0.0113 in test [17]; -0.0337 in [18]. Moreover, the Bliss excess in the test with RD (Rhabdomyosarcoma) was found to be 0.04; in test [19] it was 0.013.
As to `Cc1c2c(nn1C)CSCc1cc(n(C)n1)CSc1cc(c3ccccc3c1)OCCCc1c(C(=O)O)n(C)c3c-2c(Cl)ccc13` [AZD5991] + CC1(C)CCC(CN2CCN(c3ccc(C(=O)NS(=O)(=O)c4ccc(NCC5CCOCC5)c([N+](=O)[O-])c4)c(Oc4cnc5[nH]ccc5c4)c3)CC2)=C(c2ccc(Cl)cc2)C1 [Venetoclax] (first compound max 1 µM, 7x7, partner max 1 µM), the Bliss excess in [1] is -0.031; in [2] it was -0.0312; in test [3], -0.0605; in test [4], 0.0088; in test [5] it was 0.0005; in test [6], -0.031. Moreover, the Bliss excess in test [7] was 0.0213; in test [8], 0.0026; in test [9] it was 0.0157; in test [10], 0.0353; in test [11] it was -0.0352; in test [12] it was -0.0199. The Bliss excess in test [13] is 0.243; in [14] it was -0.0378; in [15], 0.0306; in test [16], -0.0914; in test [17], -0.032; in test [18], 0.0048. For the same compound, the Bliss excess in the test on RD (Rhabdomyosarcoma) turned out to be 0.0081; in test [19], 0.0348.
Consider `Cc1c2c(nn1C)CSCc1cc(n(C)n1)CSc1cc(c3ccccc3c1)OCCCc1c(C(=O)O)n(C)c3c-2c(Cl)ccc13` [AZD5991] + CCN(CCO)CCCOc1ccc2c(Nc3cc(CC(=O)Nc4cccc(F)c4)[nH]n3)ncnc2c1 [AZD2811] (first compound max 1 µM, 7x7, partner max 1 µM), for which the Bliss excess in test [1] was 0.0305; in [2], -0.0328; in test [3], 0.016; in test [4] it was -0.0575; in test [5], 0.0059; in [6], 0.0086. Besides, the Bliss excess in test [7] was 0.0125; in [8], -0.0292; in test [9] it was -0.0638; in test [10] it was -0.0519; in test [11], 0.0055; in [12], 0.0013. For the same compound, the Bliss excess in test [13] is 0.123; in [14] it was 0.0531; in [15], 0.0287; in test [16], -0.0303; in test [17], -0.0049; in test [18], -0.0072. Further, the Bliss excess stood at 0.0268 in the test with RD (Rhabdomyosarcoma) and 0.0998 in test [19].
As for `Cc1c2c(nn1C)CSCc1cc(n(C)n1)CSc1cc(c3ccccc3c1)OCCCc1c(C(=O)O)n(C)c3c-2c(Cl)ccc13` [AZD5991] + C[C@@H]1COCCN1C2=NC(=NC(=C2)C3(CC3)[S@](=N)(=O)C)C4=C5C=CNC5=NC=C4 [AZD6738] (first compound max 1 µM, 7x7, partner max 10 µM), the Bliss excess was -0.0081 in [1]; 0.035 in test [2]; 0.0308 in test [3]; 0.0248 in test [4]; 0.0514 in [5]; -0.0081 in test [6]. Moreover, the Bliss excess in test [7] was 0.0181; in [8], 0.0756; in test [9], -0.0091; in [10] it was 0.0296; in test [11], 0.0265; in [12] it was -0.0252. The Bliss excess was 0.0188 in [13]; 0.056 in test [14]; 0.0436 in [15]; -0.0038 in test [16]; 0.0573 in test [17]; 0.0395 in [18]. Moreover, the values for the Bliss excess (with RD (Rhabdomyosarcoma); in test [19]) were 0.0482 and 0.0289, respectively.
